Drawing on patent US4889857A, “Quinolonecarboxylic acid compounds and pharmaceutical use thereof” (Yoshitomi Pharmaceutical Industries, Ltd., priority 1987, dated 1989), this text covers MIC, ED50 and LD50 for two molecules.

Structures are written as SMILES. Values after ≈ are worked out from the molar mass of the structure shown. Where two headings read alike, the source gives them in different places.

Data set [1] concerns S. aureus Smith. Briefly: MIC of the infecting organism (Experiment 2). It counts as cell-based. To be noted: Staphylococcus aureus; Table 2; read-out: MIC. Here is the method:
(§1) Experimental infection was caused by inoculating male mice intraperitoneally with each organism. Each of the test compounds was administered orally to the mice, one hour after the inoculation. The therapeutic effect of each compounds was judged by using a 50% effective dose (ED50) from the survival rate on day 7 after injection by the Probit method as described in Proc. Soc. Exp. Biol. Med., Vol. 57, p.261-264, 1944. The Minimum inhibitory concentrations (MIC) were also measured.

Data set [2] deals with E. coli KC-14. Briefly: MIC of the infecting organism (Experiment 2). It counts as cell-based. To be noted: Escherichia coli, KC14. Here is the method: as §1
In data set [3] the test system is Streptocccus pneumoniae Type 1. The data set is described as follows: Antibacterial activity in vitro (MIC). It is filed as cell-based.
Data set [4] relates to Enterobacter cloacae IFO 12937. The data set is described as follows: Antibacterial activity in vitro (MIC). It counts as cell-based.
From the text: (Inoculum size: 10^6 cells/ml, Organisms with asterisk (*) were
cultivated in a 10% horse bloodadded medium.)
In data set [5] the test system is Streptococcus pyogenes S-8. Briefly: Antibacterial activity in vitro (MIC). It is filed as cell-based.
Data set [6] has as its system S. pneumoniae Type III. Briefly: Protective effect against experimental infection in mice. The conditions noted are these: oral, 1 h after i.p. inoculation of 6.0 × 10^2 cells/mouse [12 LD50]; survival day 7; 95% confidence limit. It counts as in vivo. As to the method: as §1
(§2) (The overnight cultures of test organisms with an asterisk (*) were
(§3) diluted with 50% mucin and 0.5 ml of each was injected intraperitoneally
(§4) into mice. A double asterisk (**) means a 95% confidence limit. MRSA mean
(§5) methycillinresistant Staphylococcus aureus.)

Data set [7] deals with S. aureus Smith. The data set is described as above. It is filed as in vivo. The conditions noted are these: oral, 1 h after i.p. inoculation of 2.13 × 10^6 cells/mouse [792 LD50] with mucin; survival day 7; 95% confidence limit. As to the method:
as §1, §2, §3, §4, §5

The test system of data set [8] is S. pyogenes C-203. The description is as above. The conditions noted are these: oral, 1 h after i.p. inoculation of 4.42 × 10^4 cells/mouse [680 LD50]; survival day 7; 95% confidence limit. It counts as in vivo. Here is the method: as §1, §2, §3, §4, §5
Data set [9] concerns E. coli KC-14. The description is as above. The conditions noted are these: oral, 1 h after i.p. inoculation of 5.75 × 10^4 cells/mouse [488 LD50] with mucin; survival day 7; 95% confidence limit. It is filed as in vivo. As to the method: as §1, §2, §3, §4, §5
The subject of data set [10] is S. aureus 109(MRSA). The description is as above. It is filed as in vivo. To be noted: oral, 1 h after i.p. inoculation of 4.93 × 10^8 cells/mouse [5.7 LD50] with mucin; survival day 7; 95% confidence limit. Here is the method: as §1, §2, §3, §4, §5
A short description of data set [11]: Acute toxicity. The conditions noted are these: mouse, in vivo. Here is the method:
The compound A was intraveneously (iv) or orally (po) administered to a group of male mice once. After 10 days, the LD50 values were determined by the Litchfield-Wilcoxon method.

Data set [12] has as its system Streptococcus pyogenes E-14. The data set is described as follows: Antibacterial activity in vitro (MIC). It is filed as cell-based.
Data set [13] relates to S. pneumoniae Type III. Briefly: MIC of the infecting organism (Experiment 2). It counts as cell-based. The conditions noted are these: Streptococcus pneumoniae; Table 2. Here is the method: Experimental infection was caused by inoculating male mice intraperitoneally with each organism. Each of the test compounds was administered orally to the mice, one hour after the inoculation. […] The Minimum inhibitory concentrations (MIC) were also measured.

Consider `CNCC1CN(c2c(F)cc3c(=O)c(C(=O)O)cn(C4CC4)c3c2F)CCO1` (centres unmarked) [Compound A, 1-cyclopropyl-6,8-difluoro-1,4,-dihydro-7-[2-(methylaminomethyl)morpholino]-4-oxoquinoline-3-carboxylic acid], for which the MIC in data set [1] came to 0.012 mg/L; in data set [2] (Table 2, read-out: MIC) it was 0.05 mg/L; in data set [3], 0.05 mg/L (≈ 0.127 µM); in data set [4] (IFO12937), 0.78 mg/L (≈ 1.98 µM); in [5] (S8), 0.1 mg/L (≈ 0.254 µM); in data set [12] (E14) it was 0.1 mg/L (≈ 0.254 µM). For the same molecule, the MIC in data set [13] was determined as 0.05 mg/L. Further, the ED50 in [6] is on record as 0.707(0.453-1.104) mg/mouse; in data set [7], 0.068(0.044-0.104) mg/mouse; in data set [8] it was 0.214(0.124-0.388) mg/mouse; in [9], 0.028(0.019-0.042) mg/mouse; in [10] it was 0.061(0.041-0.093) mg/mouse. The LD50 at 240 h in data set [11] (iv) was 210 mg/kg; in data set [11] (po), above 3000 mg/kg.

With `CC1COc2c(N3CCN(C)CC3)c(F)cc3c(=O)c(C(=O)O)cn1c23` (centres unmarked) [OFLX, 9-fluoro-3-methyl-10-(4-methyl-1-piperazinyl)-7-oxo-2,3-dihydro-7H-pyrido[1,2,3-de][1,4]-benzoxazine-6-carboxylic acid], the MIC was 0.2 mg/L in [1]; 0.025 mg/L in data set [2]; 0.78 mg/L (≈ 2.16 µM) in data set [3] (inoculum 10^6 cells/ml, 10% horse blood-added medium, read-out: MIC); 0.39 mg/L (≈ 1.08 µM) in data set [4] (IFO12937, inoculum 10^6 cells/ml, read-out: MIC); 0.78 mg/L (≈ 2.16 µM) in [5] (S8, inoculum 10^6 cells/ml, 10% horse blood-added medium, read-out: MIC); 0.78 mg/L (≈ 2.16 µM) in data set [12] (E14, inoculum 10^6 cells/ml, 10% horse blood-added medium, read-out: MIC). In data set [13], the MIC was found to be 1.56 mg/L. For the same molecule, the ED50 in [6] is given as above 2 mg/mouse; in data set [7], 0.380(0.253-0.601) mg/mouse; in data set [8] it was 1.432(1.006-2.393) mg/mouse; in data set [9] it was 0.018(0.013-0.026) mg/mouse; in data set [10] it was 0.459(0.257-0.661) mg/mouse.

As a reminder, the MIC is the lowest concentration that inhibits growth of the organism. A word on the LD50: it is the dose at which mortality reaches 50%. Low readings indicate a more toxic substance, high ones a less toxic substance.
